Source: patent publication US20220168307A1, “TREATMENT OF SMA” (Hoffmann-La Roche Inc., priority 2019, published 2022)
“And” between values parts separate entries of the source, which are not always exact repeats. Equal values may be shown once. “Also recorded” adds a separate entry of the source. Read-outs that look alike come from different tables or passages of the source.

Experiments:
CYP3A4 [1] = target: T1, CYP3A4 (Homo sapiens, UniProt P08684); details: microsomes, pH 7.4
Description: (§1) Donors CMV negative for serology are unm
(§2) All incubations were conducted in duplicate.
(§3) The first order rate constant for inactivation (λ or kabs) was estimated from slopes of the linear portion of the curves.
Target sequence in this assay (P08684 whole entry): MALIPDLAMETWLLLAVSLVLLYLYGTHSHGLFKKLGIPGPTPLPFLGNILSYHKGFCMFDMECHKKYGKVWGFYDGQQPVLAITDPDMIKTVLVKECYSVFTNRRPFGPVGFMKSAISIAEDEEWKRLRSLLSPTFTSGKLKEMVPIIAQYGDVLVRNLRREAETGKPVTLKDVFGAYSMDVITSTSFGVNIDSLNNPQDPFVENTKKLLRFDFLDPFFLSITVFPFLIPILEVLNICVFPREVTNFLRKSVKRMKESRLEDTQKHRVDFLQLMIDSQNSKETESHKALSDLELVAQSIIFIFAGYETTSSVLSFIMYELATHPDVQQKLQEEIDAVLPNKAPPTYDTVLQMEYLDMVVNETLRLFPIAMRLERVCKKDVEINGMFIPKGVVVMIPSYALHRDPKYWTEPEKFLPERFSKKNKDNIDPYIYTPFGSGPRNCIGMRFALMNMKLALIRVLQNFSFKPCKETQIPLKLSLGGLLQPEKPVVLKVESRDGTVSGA

CYP3A4 [2] = details: human, pH 7.4
Description: as §1, §2, §3

CYP3A4 [3] = target: T1, CYP3A4; experiment: in vitro; details: for % Remaining: duplicates; for IC50: human, microsomes, 30 min pre-incubation
Description: as §1, §2
Target sequence in this assay (P08684 2-503): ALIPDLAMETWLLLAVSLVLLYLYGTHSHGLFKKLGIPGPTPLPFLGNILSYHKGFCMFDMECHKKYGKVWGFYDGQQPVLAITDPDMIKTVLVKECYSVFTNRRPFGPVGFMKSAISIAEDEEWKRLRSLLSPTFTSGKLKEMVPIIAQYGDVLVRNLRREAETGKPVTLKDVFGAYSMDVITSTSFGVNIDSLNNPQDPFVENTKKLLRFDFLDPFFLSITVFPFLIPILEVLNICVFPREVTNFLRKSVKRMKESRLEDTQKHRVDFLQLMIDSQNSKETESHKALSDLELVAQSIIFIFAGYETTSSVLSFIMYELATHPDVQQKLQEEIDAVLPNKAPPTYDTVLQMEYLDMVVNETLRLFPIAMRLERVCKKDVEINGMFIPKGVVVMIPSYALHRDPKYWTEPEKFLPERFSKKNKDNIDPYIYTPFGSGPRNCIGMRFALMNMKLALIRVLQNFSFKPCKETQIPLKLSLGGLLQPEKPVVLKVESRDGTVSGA
% remaining=(C+I/C^−I)*100

CYP2C8 = target: T2, CYP2C8 (Homo sapiens, UniProt P10632); experiment: Direct inhibition of CYP2C8 (amodiaquine) in human liver microsomes
T2 sequence (P10632 1-490): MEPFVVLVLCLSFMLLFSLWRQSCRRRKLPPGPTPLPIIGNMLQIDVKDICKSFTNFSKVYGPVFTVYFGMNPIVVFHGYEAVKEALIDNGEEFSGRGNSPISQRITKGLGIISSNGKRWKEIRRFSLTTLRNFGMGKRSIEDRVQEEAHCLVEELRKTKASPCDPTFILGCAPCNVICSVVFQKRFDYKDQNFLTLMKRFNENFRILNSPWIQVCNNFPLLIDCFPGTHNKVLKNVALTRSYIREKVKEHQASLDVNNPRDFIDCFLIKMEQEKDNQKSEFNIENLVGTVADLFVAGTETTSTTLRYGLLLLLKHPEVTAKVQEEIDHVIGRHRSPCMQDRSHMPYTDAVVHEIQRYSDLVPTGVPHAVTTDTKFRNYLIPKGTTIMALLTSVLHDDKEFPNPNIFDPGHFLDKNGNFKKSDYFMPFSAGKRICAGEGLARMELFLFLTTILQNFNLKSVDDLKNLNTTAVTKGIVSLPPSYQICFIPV

Cc1cn2nc(-c3cc(=O)n4cc(N5CCNC6(CC6)C5)ccc4n3)cc(C)c2n1 [risdiplam, 7-(4,7-diazaspiro[2.5]octan-7-yl)-2-(2,8-dimethylimidazo[1,2-b]pyridazin-6-yl)pyrido[1,2-a]pyrimidin-4-one]
Percent CYP3A4 activity remaining (CYP3A4 [1]; 0 h, 0.1 μM): 100% | Percent CYP3A4 activity remaining (CYP3A4 [1]; 0 h, 0.2 μM): 100% | Percent CYP3A4 activity remaining (CYP3A4 [1]; 0 h, 0.5 μM): 100% | Percent CYP3A4 activity remaining (CYP3A4 [1]; 0 h, 1.3 μM): 100% | Percent CYP3A4 activity remaining (CYP3A4 [1]; 0 h, 3.2 μM): 100% | Percent CYP3A4 activity remaining (CYP3A4 [1]; 0 h, 8 μM): 100% | Percent CYP3A4 activity remaining (CYP3A4 [1]; 0 h, 12.5 μM): 100% | Percent CYP3A4 activity remaining (CYP3A4 [1]; 4 min, 0.1 μM): 90% | Percent CYP3A4 activity remaining (CYP3A4 [1]; 4 min, 0.2 μM): 90% | Percent CYP3A4 activity remaining (CYP3A4 [1]; 4 min, 0.5 μM): 87% | Percent CYP3A4 activity remaining (CYP3A4 [1]; 4 min, 1.3 μM): 82% | Percent CYP3A4 activity remaining (CYP3A4 [1]; 4 min, 3.2 μM): 89% | Percent CYP3A4 activity remaining (CYP3A4 [1]; 4 min, 8 μM): 76% | Percent CYP3A4 activity remaining (CYP3A4 [1]; 4 min, 12.5 μM): 62% | Percent CYP3A4 activity remaining (CYP3A4 [1]; 0.25 h, 0.1 μM): 80% | Percent CYP3A4 activity remaining (CYP3A4 [1]; 0.25 h, 0.2 μM): 80% | Percent CYP3A4 activity remaining (CYP3A4 [1]; 0.25 h, 0.5 μM): 77% | Percent CYP3A4 activity remaining (CYP3A4 [1]; 0.25 h, 1.3 μM): 71% | Percent CYP3A4 activity remaining (CYP3A4 [1]; 0.25 h, 3.2 μM): 62% | Percent CYP3A4 activity remaining (CYP3A4 [1]; 0.25 h, 8 μM): 41% | Percent CYP3A4 activity remaining (CYP3A4 [1]; 0.25 h, 12.5 μM): 29% | Percent CYP3A4 activity remaining (CYP3A4 [1]; 0.5 h, 0.1 μM): 78% | Percent CYP3A4 activity remaining (CYP3A4 [1]; 0.5 h, 0.2 μM): 78% | Percent CYP3A4 activity remaining (CYP3A4 [1]; 0.5 h, 0.5 μM): 75% | Percent CYP3A4 activity remaining (CYP3A4 [1]; 0.5 h, 1.3 μM): 65% | Percent CYP3A4 activity remaining (CYP3A4 [1]; 0.5 h, 3.2 μM): 49% | Percent CYP3A4 activity remaining (CYP3A4 [1]; 0.5 h, 8 μM): 25% | Percent CYP3A4 activity remaining (CYP3A4 [1]; 0.5 h, 12.5 μM): 17% | Percent CYP3A4 activity remaining (CYP3A4 [1]; 0.75 h, 0.1 μM): 72% | Percent CYP3A4 activity remaining (CYP3A4 [1]; 0.75 h, 0.2 μM): 72% | Percent CYP3A4 activity remaining (CYP3A4 [1]; 0.75 h, 0.5 μM): 68% | Percent CYP3A4 activity remaining (CYP3A4 [1]; 0.75 h, 1.3 μM): 55% | Percent CYP3A4 activity remaining (CYP3A4 [1]; 0.75 h, 3.2 μM): 39% | Percent CYP3A4 activity remaining (CYP3A4 [1]; 0.75 h, 8 μM): 19% | Percent CYP3A4 activity remaining (CYP3A4 [1]; 0.75 h, 12.5 μM): 13% | Percent CYP3A4 activity remaining (CYP3A4 [1]; 1 h, 0.1 μM): 65% | Percent CYP3A4 activity remaining (CYP3A4 [1]; 1 h, 0.2 μM): 65% | Percent CYP3A4 activity remaining (CYP3A4 [1]; 1 h, 0.5 μM): 59% | Percent CYP3A4 activity remaining (CYP3A4 [1]; 1 h, 1.3 μM): 48% | Percent CYP3A4 activity remaining (CYP3A4 [1]; 1 h, 3.2 μM): 36% | Percent CYP3A4 activity remaining (CYP3A4 [1]; 1 h, 8 μM): 15% | Percent CYP3A4 activity remaining (CYP3A4 [1]; 1 h, 12.5 μM): 10% | KI (CYP3A4 [2]): 13 µM | % Remaining (CYP3A4 [3]; CYP3A4-Midazolam, minus NADPH, risdiplam pre-incubation 0.10 μM): 88% and 103% | % Remaining (CYP3A4 [3]; CYP3A4-Midazolam, minus NADPH, risdiplam pre-incubation 0.20 μM): 99% and 103% | % Remaining (CYP3A4 [3]; CYP3A4-Midazolam, minus NADPH, risdiplam pre-incubation 0.50 μM): 99% and 108% | % Remaining (CYP3A4 [3]; CYP3A4-Midazolam, minus NADPH, risdiplam pre-incubation 1.3 μM): 99% and 110% | % Remaining (CYP3A4 [3]; CYP3A4-Midazolam, minus NADPH, risdiplam pre-incubation 3.2 μM): 99% and 100% | % Remaining (CYP3A4 [3]; CYP3A4-Midazolam, minus NADPH, risdiplam pre-incubation 8.0 μM): 95% and 106% | % Remaining (CYP3A4 [3]; CYP3A4-Midazolam, minus NADPH, risdiplam pre-incubation 12.5 μM): 115% and 108% | % Remaining (CYP3A4 [3]; CYP3A4-Midazolam, plus NADPH, risdiplam pre-incubation 0.10 μM): 101% and 105% | % Remaining (CYP3A4 [3]; CYP3A4-Midazolam, plus NADPH, risdiplam pre-incubation 0.20 μM): 101% and 109% | % Remaining (CYP3A4 [3]; CYP3A4-Midazolam, plus NADPH, risdiplam pre-incubation 0.50 μM): 94% and 109% | % Remaining (CYP3A4 [3]; CYP3A4-Midazolam, plus NADPH, risdiplam pre-incubation 1.3 μM): 90% and 96% | % Remaining (CYP3A4 [3]; CYP3A4-Midazolam, plus NADPH, risdiplam pre-incubation 3.2 μM): 60% and 64% | % Remaining (CYP3A4 [3]; CYP3A4-Midazolam, plus NADPH, risdiplam pre-incubation 8.0 μM): 28% and 30% | % Remaining (CYP3A4 [3]; CYP3A4-Midazolam, plus NADPH, risdiplam pre-incubation 12.5 μM): 22% and 21% | % Remaining (CYP3A4 [3]; CYP3A4-Testosterone, minus NADPH, risdiplam pre-incubation 0.10 μM): 101% and 99% | % Remaining (CYP3A4 [3]; CYP3A4-Testosterone, minus NADPH, risdiplam pre-incubation 0.20 μM): 94% and 93% | % Remaining (CYP3A4 [3]; CYP3A4-Testosterone, minus NADPH, risdiplam pre-incubation 0.50 μM): 100% and 93% | % Remaining (CYP3A4 [3]; CYP3A4-Testosterone, minus NADPH, risdiplam pre-incubation 1.3 μM): 102% and 95% | % Remaining (CYP3A4 [3]; CYP3A4-Testosterone, minus NADPH, risdiplam pre-incubation 3.2 μM): 93% and 102% | % Remaining (CYP3A4 [3]; CYP3A4-Testosterone, minus NADPH, risdiplam pre-incubation 8.0 μM): 90% and 88% | % Remaining (CYP3A4 [3]; CYP3A4-Testosterone, minus NADPH, risdiplam pre-incubation 12.5 μM): 89% | % Remaining (CYP3A4 [3]; CYP3A4-Testosterone, plus NADPH, risdiplam pre-incubation 0.10 μM): 97% and 95% | % Remaining (CYP3A4 [3]; CYP3A4-Testosterone, plus NADPH, risdiplam pre-incubation 0.20 μM): 98% and 93% | % Remaining (CYP3A4 [3]; CYP3A4-Testosterone, plus NADPH, risdiplam pre-incubation 0.50 μM): 94% and 92% | % Remaining (CYP3A4 [3]; CYP3A4-Testosterone, plus NADPH, risdiplam pre-incubation 1.3 μM): 90% and 85% | % Remaining (CYP3A4 [3]; CYP3A4-Testosterone, plus NADPH, risdiplam pre-incubation 3.2 μM): 63% and 62% | % Remaining (CYP3A4 [3]; CYP3A4-Testosterone, plus NADPH, risdiplam pre-incubation 8.0 μM): 23% and 24% | % Remaining (CYP3A4 [3]; CYP3A4-Testosterone, plus NADPH, risdiplam pre-incubation 12.5 μM): 13% | IC50 (CYP3A4 [3]; pH 7.4, IC50, CYP3A4-Midazolam Inactivation, minus NADPH): > 12.5 µM | IC50 (CYP3A4 [3]; pH 7.4, IC50, CYP3A4-Midazolam Inactivation, plus NADPH): 4.8 µM | IC50 (CYP3A4 [3]; pH 7.4, IC50, CYP3A4-Testosterone Inactivation, minus NADPH): > 12.5 µM | IC50 (CYP3A4 [3]; pH 7.4, IC50, CYP3A4-Testosterone Inactivation, plus NADPH): 4.1 µM | % Control activity at (CYP2C8; direct inhibition, substrate Amodiaquine, concentration not given, duplicates): 91% | reversible (direct) inhibition (in words) (CYP2C8; risdiplam up to 12.5 μM): did not show any significant reversible or time-dependent inhibition; also recorded: No significant reversible or time-dependent inhibition; also recorded: No significant reversible inhibition; also recorded: low potential to cause direct or time-dependent inhibition
